Measured values reported in PubChem BioAssay (NCI).
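96-well plates; 48 h exposure; 5 concentrations. Endpoints by linear interpolation between flanking doses. Not reached: highest tested concentration assigned. TGI is the concentration that stops growth completely.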 Where a SMILES comes first, the peptide text is derived from it. [ ]: non-standard residue; d: D form. The star is where a group is joined. AllylGly = C=CC[CH](N)C(=O)O; Boc = CC(C)(C)OC(=O)*; OtBu = CC(C)(C)O*

How the values were obtained:
Test in all cases: NCI anticancer screen, dose series, 48 h
OVCAR-3 ovarian = system: OVCAR-3 ovarian
HT29 colon = system: HT29 colon
786-0 renal = system: 786-0 renal
NCI-H460 lung = system: NCI-H460 lung
LOX IMVI melanoma = system: LOX IMVI melanoma
HCC-2998 colon = system: HCC-2998 colon
MDA-MB-435 = system: MDA-MB-435
OVCAR-4 ovarian = system: OVCAR-4 ovarian
DU-145 prostate = system: DU-145 prostate
NCI-H226 lung = system: NCI-H226 lung
MDA-N = system: MDA-N
SW-620 colon = system: SW-620 colon
RXF 393 renal = system: RXF 393 renal
ACHN renal = system: ACHN renal
SK-MEL-5 melanoma = system: SK-MEL-5 melanoma
KM12 colon = system: KM12 colon
SK-MEL-2 melanoma = system: SK-MEL-2 melanoma
A498 renal = system: A498 renal
UO-31 renal = system: UO-31 renal

Structure (SMILES)	TGI (OVCAR-3 ovarian) [µM]	TGI (HT29 colon) [µM]	TGI (786-0 renal) [µM]	TGI (NCI-H460 lung) [µM]	TGI (LOX IMVI melanoma) [µM]	TGI (HCC-2998 colon) [µM]	TGI (MDA-MB-435) [µM]	TGI (OVCAR-4 ovarian) [µM]	TGI (DU-145 prostate) [µM]	TGI (NCI-H226 lung) [µM]	TGI (MDA-N) [µM]	TGI (SW-620 colon) [µM]	TGI (RXF 393 renal) [µM]	TGI (ACHN renal) [µM]	TGI (SK-MEL-5 melanoma) [µM]	TGI (KM12 colon) [µM]	TGI (SK-MEL-2 melanoma) [µM]	TGI (A498 renal) [µM]	TGI (UO-31 renal) [µM]
CC1(C)N=C(C(N)=O)c2ncn(-c3ccccc3)c2N1	> 100	> 100	> 100	> 100	> 100	> 100	> 100	> 100	> 100	> 100	> 100	> 100	> 100	> 100	> 100	> 100	> 100	> 100	–
C=CCC(NC(=O)C(CC(=O)OC(C)(C)C)NC(=O)OC(C)(C)C)C(=O)OC (centres undefined) (Boc-Asp(OtBu)-[AllylGly]-OMe; configuration not given here)	61.4	> 100	> 100	> 100	41.7	61.3	> 91.3	> 100	> 100	> 100	> 79.7	> 100	> 100	> 100	> 57.3	> 100	> 100	> 100	> 100
CN1CN(c2ccccc2)C2(CCN(CCCSc3ccccc3NC(=O)/C=C/c3ccccc3)CC2)C1=O	13.3	5.75	29.9	14.8	4.61	20.6	6.91	> 37	18.2	5.56	6.33	26.3	31.9	9.81	9.18	17.9	6.12	6.98	14.1
COc1ccc2nc3ccc(OC)cc3c(S(=O)(=O)Cc3ccc([N+](=O)[O-])cc3)c2c1	> 100	> 100	> 100	> 100	> 100	> 100	> 100	> 100	> 100	> 100	> 100	> 100	> 100	> 100	–	> 100	> 100	> 100	> 100
CCOC(=O)CCC(NC(=O)c1ccc(Oc2nc3ccc(C(F)(F)F)cc3nc2-c2ccccc2)cc1)C(=O)OCC (centres undefined)	> 100	> 75.2	32.9	> 100	> 100	> 100	> 100	> 83	> 100	17.6	> 100	> 100	55.4	> 100	> 100	> 100	> 65.8	> 31.6	> 100
O=C1/C(=C\c2cccc(Oc3ccccc3)c2)S(=O)(=O)C(c2ccccc2)N1c1ccc(Cl)cc1 (centres undefined)	32.7	28.2	27	> 100	27.8	> 100	25.4	52.3	37.4	> 100	29	34.4	29.4	36.9	30.5	> 100	34.5	> 100	26.8
Cc1cn(C2CCC(/C=N\O)O2)c(=O)[nH]c1=O (centres undefined)	> 100	> 100	> 100	> 100	> 100	> 100	> 100	> 100	> 100	> 100	> 100	> 100	> 100	> 100	> 100	> 100	> 100	> 100	> 100
Cc1ccc(S(=O)(=O)NN=C2CCCCCCCCCCC2)cc1	> 100	> 100	> 100	> 100	> 100	> 100	> 100	> 100	> 100	> 100	> 100	> 100	> 100	> 100	> 100	> 100	> 100	> 100	> 100
CC1(C2(C)OC(=O)c3ccccc32)OC(=O)c2ccccc21 (centres undefined)	> 100	> 100	> 100	> 100	> 100	> 100	> 100	> 100	> 100	> 100	> 100	> 100	> 100	> 100	> 100	> 100	> 100	> 100	> 100
CN(NC(=O)CCCl)C1=NCCN1	> 100	> 100	> 100	> 100	> 100	> 100	> 100	> 100	> 100	> 100	> 100	> 100	> 100	> 100	> 100	> 100	> 100	> 100	> 100
CCOc1ccc(/C(O)=C/c2nc3ccccc3nc2/C=C(\O)c2ccc(OCC)cc2)cc1	> 100	> 100	> 100	> 100	> 100	> 100	> 100	> 100	> 100	> 100	> 100	> 100	> 100	> 100	> 100	–	> 100	> 100	> 100
COc1ccc(/C=C2\C[C@H]3[C@@H]4CCC5=C[C@@H](N6CCCC6)CC[C@]5(C)[C@H]4CC[C@]3(C)[C@H]2O)cc1	8.26	3.15	2.94	8.04	3.61	3.27	4.47	13.9	20.8	10.9	3.73	–	3.29	11.7	2.91	8.02	3.6	3.2	3.26
